Like-named read-outs stand apart in the source and are kept apart here.

Series [1] deals with human PBMC. Kind of series: hPBMC cytokine release assay (Luminex, IFN-β). It counts as cell-based. The settings on record: read-out: Agonist_hPBMC_IFN-β_EC50. The procedure:
This is the cytokines concentration detection with Luminex assay for human PBMC supernatant. Human peripheral blood mononuclear cells (PBMC) are treated by compounds with appropriate time. Multiple cytokines are released in the supernatant in response to the compound stimulation. Luminex assay can measure the cytokines concentration in supernatant and the compounds activity on human PBMC can be evaluated.
Frozen PBMC was thawed and cultured in PRMI1640 (GIBCO 11875-093) whole medium with […] Heat inactivated-FBS (HI—FBS), 1% NEAA, […] in CO2 incubator overnight. Cells were centrifuged at 400×g for 5 minutes at 4° C. and the pellet was re-suspended with complete RPMI1640 medium to concentration of 1×10^6 cells/ml in cell culture flask T75 (Thermo Fisher Scientific). Compounds were serially diluted with DMSO and distributed to 96-well flat bottom cell plate (Corning 3599) with Echo555. 90 μL/well PBMC cells were seeded into the plates with Multidrop (Thermo Fisher Scientific). After 24 hours of incubation in CO2 incubator, cells were centrifuged at 400×g for 5 minutes at room temperature, 80 μL supernatant each well was collected for cytokines release test with luminex assay of Human custom ProcartaPlex 5-plex kit (Thermo Fisher Scientific PPX-05). 10 μL supernatant or standards were added to a mixture of color-coded beads, 5 μL Biotinylated detection antibodies specific to the analytes of interest were added and formed an antibody-antigen sandwich. 10 μL Phycoerythrin (PE)-conjugated streptavidin is added to the plate and then read signal of each well on the Luminex 200™. The raw data was analyzed by Millipore Analyst Software and cytokine concentrations were generated accordingly. The EC50 of corresponding cytokine such as interferon-β (IFN-β) was calculated by the 4-parameter sigmoidal concentration response model fitting.

Series [2] can be described thus: Single dose pharmacokinetics (SDPK) in female C57BL/6J mice. It counts as in vivo. The conditions noted are these: mouse, plasma, 1 mg/kg, iv. On the procedure:
This is the single dose pharmacokinetics (PK) study in female C57/BL6 mice. The purpose of this study was to determine the pharmacokinetics of selected compounds following a single intravenous bolus injection in female C57BL/6J mice. Briefly, 3 female C57BL/6J mice (available from Shanghai Lingchang Biotechnology Co., Ltd) were treated with a single dose of compound intravenously at 1 mg/kg (IV). Blood samples were collected at 5 min, 15 min, 30 min, 1 h, 2 h, 4 h, 7 h and 24 h post-dose. Blood samples were placed on wet ice until centrifugation to obtain plasma samples. The compound concentration in plasma samples was determined using LC-MS/MS method. The pharmacokinetic parameters were calculated by non-compartmental analysis.

Series [3] concerns interferon regulatory factor (IRF) pathway in THP1-Dual™ cells. Nature of the series: THP1-Dual reporter gene assay (Agonist_THP1_EC50). The conditions noted are these: Homo sapiens, 20-24 hrs compound treatment, Lucia luciferase (IRF) readout. It counts as cell-based. The gist of the method: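 Human THP-1 monocytes with Lucia luciferase under ISG54 minimal promoter plus five ISREs; ~33,000 cells/well with serially diluted compound, final 1% DMSO, 20-24 h at 37 °C. Supernatant Lucia luciferase read by QUANTI-Luc Gold luminescence; viability by CCK-8, A450 after 2 h.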

Setting [4] is: female, C57BL/6J, prior art compounds (Table 4).
Where [5] appears, read: 24 hours incubation, IFN-β in supernatant.

As usually defined, the AUC(0-t) is the area under the concentration-time curve up to a stated or last time point. A high value points to high exposure. A word on the clearance: it is the rate of elimination divided by the concentration. With `CCn1nc(C)c(O)c1-c1nnc(-c2nc(C(N)=O)cc3c2cnn3C)[nH]1` [AC01, reference compound], the EC50 in series [1] (prior art compounds (Table 4), IFN-β) came to 28 nM. For the same compound, in series [2] (setting [4]), the AUC(0-t) came out at 102 ng·h/mL, the C0 turned out to be 997 ng/mL and the clearance amounted to 170 mL/min/kg.
`CCn1nc(C)c(O)c1-c1n[nH]c(-c2c(F)c(C(N)=O)n3cc(C)ncc23)n1` [Example 4, 8-[3-(2-ethyl-4-hydroxy-5-methyl-pyrazol-3-yl)-1H-1,2,4-triazol-5-yl]-7-fluoro-3-methyl-pyrrolo[1,2-a]pyrazine-6-carboxamide] registered an EC50 in series [3] of 162 nM. In series [2] (female C57BL/6J mice), this compound returned an AUC(0-t) of 122 ng·h/mL, a C0 of 1720 ng/mL and a clearance of 137 mL/min/kg.
The compound `CCCn1nc(C)c(O)c1-c1n[nH]c(-n2nc(C(N)=O)c3cc(C)ncc32)n1` [Example 31, 1-[3-(4-hydroxy-5-methyl-2-propyl-pyrazol-3-yl)-1H-1,2,4-triazol-5-yl]-5-methyl-pyrazolo[3,4-c]pyridine-3-carboxamide] returned an EC50 in series [3] of 19 nM. Also, the EC50 in series [1] (setting [5]) was found to be 32 nM. In addition, in series [2] (female C57BL/6J mice), the AUC(0-t) came to 597 ng·h/mL, the C0 was 5500 ng/mL and the clearance was found to be 30 mL/min/kg.
For `Cc1cc2c(C(N)=O)nn(-c3nc(-c4c(O)c(C)nn4CCc4ccccc4)n[nH]3)c2cn1` [Example 40, 1-[3-[4-hydroxy-5-methyl-2-(2-phenylethyl)pyrazol-3-yl]-1H-1,2,4-triazol-5-yl]-5-methyl-pyrazolo[3,4-c]pyridine-3-carboxamide], in that order: 11 nM, 46 nM, 151 ng·h/mL, 1600 ng/mL and 114 mL/min/kg.
On the same counts, the results for `CCCn1nc(C)c(O)c1-c1n[nH]c(-c2c(F)c(C(N)=O)n3cc(C)ncc23)n1` [Example 79, 7-fluoro-8-[3-(4-hydroxy-5-methyl-2-propyl-pyrazol-3-yl)-1H-1,2,4-triazol-5-yl]-3-methyl-pyrrolo[1,2-a]pyrazine-6-carboxamide] are 5 nM, 22 nM, 150 ng·h/mL, 2200 ng/mL and 111 mL/min/kg.

(Values after patent publication US20250074913A1, “PYRAZOLE DERIVATIVES AS STING AGONISTS” (Hoffmann-La Roche Inc., priority 2022, published 2025).)
